Patent US5736559A, “Biphenyl derivatives, pharmaceutical compositions containing these compounds and processes for preparing them” (Karl Thomae GmbH, priority 1991, dated 1998)
Where a name gives a salt, the structure may show the parent alone.

How the values were obtained:
[1] = target: Fibrinogen binding to human thrombocytes; test: Fibrinogen binding to human thrombocytes; settings: 125I fibrinogen; gel-filtered human platelets; ADP; 20 minutes at ambient temperature; read-out: Fibrinogen binding test IC50
Method: Fibrinogen binding to human thrombocytes The blood obtained by puncturing an antecubital vein is anticoagulated with trisodium citrate (final concentration: 13 mM) and centrifuged for 10 minutes at 170 xg. The supernatant platelet-rich plasma is poured onto a Sepharose 2B column (Pharmacia) and eluted with a solution of 90 mM common salt, 14 mM trisodium citrate, 5 mM glucose and 50 mM Tris(hydroxymethyl)aminomethane, adjusted to pH 7.4. The gel-filtered platelets (GFP) appearing before the plasma proteins are used for the binding experiments. 50 μl of a 60 mM calcium chloride solution, 50 μl of a 0.6 mM adenosine diphosphate solution, 100 μl of substance solution or solvent and 50 μl of fibrinogen solution (containing 3 μg of ^125 I fibrinogen) are added to 750 μl of GFP and incubated for 20 minutes at ambient temperature. The non-specific binding is determined in the presence of 3 mg/ml of cold fibrinogen. 900 μl of the incubated material are carefully pipetted onto 250 μl of silicon oil (AP 38: AR 20, 1:2 v/v, Wacker Chemie) in Eppendorf tubes and centrifuged for 2 minutes at 10,000 xg. The aqueous supernatant and some of the oil are drawn off, the tips of the tubes are cut off together with the platelet pellet and the quantity of bound fibrinogen is determined in a gamma counter. The concentration of substance which brings about a 50% inhibition in fibrinogen binding is determined from a series of concentrations and is given as the IC50 value.

[2] = system: thrombocyte (platelet) aggregation; test: Antithrombotic activity: collagen-induced thrombocyte aggregation in platelet rich plasma (Born and Cross); format: cell-based; settings: Homo sapiens, platelet rich plasma from healthy test subjects, 10 minutes at 37° C. preincubation, 50% change in optical density, read-out: Inhibition of platelet aggregation EC50
Method: 2. Antithrombotic activity Method: Thrombocyte aggregation is measured in platelet rich plasma from healthy test subjects using the Born and Cross method (J. Physiol. 170, 397 (1964)). In order to inhibit coagulation the blood is mixed with sodium citrate 3.14% in a ratio by volume of 1:10. Collagen-induced aggregation: The course of the decrease in optical density of the platelet suspension is photometrically measured and recorded after the addition of the substance which triggers aggregation. The rate of aggregation is deduced from the gradient angle of the density curve. The point on the curve where there is maximum transmittance is used to calculate the optical density. The quantity of collagen used is as little as possible but sufficient to give an irreversible reaction curve. Standard commercial collagen produced by Hormonchemie of Munich is used. Before the addition of the collagen the plasma is incubated for 10 minutes at 37° C. with the substance. From the measurements obtained, an EC50 is determined graphically, relating to a 50% change in optical density in terms of the inhibition of aggregation.

Compound	IC50 [1] [µM]	EC50 [2] [µM]
N=C(N)c1ccc(-c2ccc(C(=O)NCCCC(=O)O)cc2)cc1 [1(2), 4-amidino-4'-[(3-carboxypropyl)aminocarbonyl]-biphenyl]	0.12	7
N=C(N)c1ccc(-c2ccc(OCC(=O)NCC(=O)O)cc2)cc1 [1(3), 4-amidino-4'-[[(carboxymethylamino)carbonyl]-methoxy]-biphenyl]	1.8	13
N=C(N)c1ccc(-c2ccc(OCC(=O)NCCC(=O)O)cc2)cc1 [1(4), 4-amidino-4'-[[(2-carboxyethyl)aminocarbonyl]-methyloxy]biphenyl]	0.35	1.7
N=C(N)c1ccc(-c2ccc(CC(=O)Nc3cccc(CC(=O)O)c3)cc2)cc1 [1(5), 4-amidino-4'-[[(3-carboxymethylphenyl)-aminocarbonyl]methyl]biphenyl]	65	> 100
N=C(N)c1ccc(-c2ccc(OCC(=O)N3CCC(C(=O)O)CC3)cc2)cc1 [1(6), 4-amidino-4'-[[(4-carboxypiperidino)carbonyl]-methyloxy]biphenyl]	0.33	1.2
N=C(N)c1ccc(-c2ccc(OCC(=O)N3CCCC(C(=O)O)C3)cc2)cc1 (centres unmarked) [1(7), 4-amidino-4'-[[(3-carboxypiperidino)carbonyl]-methyloxy]biphenyl]	1.9	3.8
N=C(N)c1ccc(-c2ccc(C(=O)N3CCCC(CC(=O)O)C3)cc2)cc1 (centres unmarked) [1(41), 4-amidino-4'-[(3-carboxymethylpiperidino)-carbonyl]biphenyl hydrochloride]	0.52	2.6
N=C(N)c1ccc(-c2ccc(CC(=O)N3CCC(C(=O)O)CC3)cc2)cc1 [1(45), 4-amidino-4'-[(4-carboxypiperidino)-carbonylmethyl]biphenyl hydrochloride]	0.22	2
N=C(N)c1ccc(-c2ccc(CC(=O)N3CCCC(CC(=O)O)C3)cc2)cc1 (centres unmarked) [1(47), 4-amidino-4'-[(3-carboxymethylpiperidino)-carbonylmethyl]biphenyl hydrochloride]	0.47	2.7
N=C(N)c1ccc(-c2ccc(C(=O)NCCCCC(=O)O)cc2)cc1 [1(65), 4-amidino-4'-[(4-carboxybutyl)aminocarbonyl]-biphenyl hydrochloride]	0.22	2.4
N=C(N)c1ccc(-c2ccc(C(=O)N3CCN(CC(=O)O)CC3)cc2)cc1 [1(67), 4-amidino-4'-[(4-carboxymethylpiperazino)-carbonyl]biphenyl hydrochloride]	0.18	0.35
N=C(N)c1ccc(-c2ccc(C(=O)N3CCN(CCC(=O)O)CC3)cc2)cc1 [1(68), 4-amidino-4'-[[4-(2-carboxyethyl)piperazino]-carbonyl]biphenyl dihydrochloride]	0.56	3.4
N=C(N)c1ccc(-c2ccc(NS(=O)(=O)NCCC(=O)O)cc2)cc1 [1(69), 4-amidino-4'-[(2-carboxyethyl)aminosulphonyl-amino]biphenyl]	3.1	12
N=C(N)c1ccc(-c2ccc(C(=O)N3CCC(C(=O)O)CC3)cc2)cc1 [1(74), 4-amidino-4'-[(4-carboxypiperidino)carbonyl]-biphenyl hydrochloride]	2.7	10.7
N=C(N)c1ccc(-c2ccc(C(=O)NC3CCC(C(=O)O)CC3)cc2)cc1 (centres unmarked) [1(80), 4-amidino-4'-[(4-carboxycyclohexyl)aminocarbonyl]-biphenyl hydrochloride]	0.031	0.04
CN(C(=O)c1ccc(-c2ccc(C(=N)N)cc2)cc1)C1CCC(C(=O)O)CC1 (centres unmarked) [1(94), 4-amidino-4'-[N-(4-carboxycyclohexyl)-N-methyl-aminocarbonyl]biphenyl]	–	0.04
N=C(N)c1ccc(-c2ccc(OCCCC(=O)O)cc2)cc1 [2(1), 4-amidino-4'-(3-carboxypropyloxy)biphenyl]	> 10	56

Compound	IC50 [1] [µM]	EC50 [2] [µM]
N=C(N)c1ccc(-c2ccc(OCCCCC(=O)O)cc2)cc1 [2(2), 4-amidino-4'-(4-carboxybutyloxy)biphenyl]	0.046	45
COC(=O)CCCC(=O)Nc1ccc(-c2ccc(C(=N)N)cc2)cc1 [6(1), 4-amidino-4'-(4-methoxycarbonylbutyrylamino)-biphenyl hydrochloride]	5.6	3.7
COC(=O)CNC(=O)COc1ccc(-c2ccc(C(=N)N)cc2)cc1 [6(2), 4-amidino-4'-[[(4-methoxycarbonylmethyl)-aminocarbonyl]methyloxy]biphenyl hydrochloride]	14	40
COC(=O)CCNC(=O)COc1ccc(-c2ccc(C(=N)N)cc2)cc1 [6(3), 4-amidino-4'-[[(2-methoxycarbonylethyl)-aminocarbonyl]methyloxy]biphenyl h ydrochloride]	18	17
COC(=O)Cc1cccc(NC(=O)c2ccc(-c3ccc(C(=N)N)cc3)cc2)c1 [6(4), 4-amidino-4'-[[3-(methoxycarboxylmethyl)phenyl]-aminocarbonyl]biphenyl hydrochloride]	47	4.4
COC(=O)CCCOc1ccc(-c2ccc(C(=N)N)cc2)cc1 [6(8), 4-amidino-4'-(3-methoxycarbonylpropyloxy)biphenyl dihydrogencarbonate]	5.2	3.4
COC(=O)CCCCOc1ccc(-c2ccc(C(=N)N)cc2)cc1 [6(9), 4-amidino-4'-(4-methoxycarbonylbutyloxy)biphenyl hydrochloride]	0.97	1.3
COC(=O)Cc1cccc(NC(=O)Cc2ccc(-c3ccc(C(=N)N)cc3)cc2)c1 [6(46), 4-amidino-4'-[[[3-(methoxycarbonylmethyl)phenyl]-aminocarbonyl]methyl]biphenyl hydrochloride]	19	82
COC(=O)CCc1cccc(NC(=O)Cc2ccc(-c3ccc(C(=N)N)cc3)cc2)c1 [6(47), 4-amidino-4'-[[[3-(2-methoxycarbonylethyl)phenyl]-aminocarbonyl]methyl]biphenyl hydrochloride]	4.9	42
COC(=O)C1CCN(C(=O)COc2ccc(-c3ccc(C(=N)N)cc3)cc2)CC1 [6(48), 4-amidino-4'-[[(4-methoxycarbonylpiperidino)-carbonyl]methyloxy]biphenyl hydrochloride]	25	0.59
COC(=O)C1CCCN(C(=O)COc2ccc(-c3ccc(C(=N)N)cc3)cc2)C1 (centres unmarked) [6(49), 4-amidino-4'-[[(3-methoxycarbonylpiperidino)-carbonyl]methyloxy]biphenyl hydrochloride]	32	36
COC(=O)CC1CCN(C(=O)c2ccc(-c3ccc(C(=N)N)cc3)cc2)CC1 [6(50), 4-amidino-4'-[(4-methoxycarbonylmethylpiperidino)-carbonyl]biphenyl hydrochloride]	0.34	0.89
COC(=O)CC1CCCN(C(=O)c2ccc(-c3ccc(C(=N)N)cc3)cc2)C1 (centres unmarked) [6(52), 4-amidino-4'-[(3-methoxycarbonylmethylpiperidino)-carbonyl]biphenyl hydrochloride]	16	38
COC(=O)C1CCN(C(=O)Cc2ccc(-c3ccc(C(=N)N)cc3)cc2)CC1 [6(56), 4-amidino-4'-[(4-methoxycarbonylpiperidino)-carbonylmethyl]biphenyl hydrochloride]	5.9	4.9
COC(=O)CC1CCCN(C(=O)Cc2ccc(-c3ccc(C(=N)N)cc3)cc2)C1 (centres unmarked) [6(58), 4-amidino-4'-[(3-methoxycarbonylmethylpiperidino)-carbonylmethyl]biphenyl hydrochloride]	34	23
COC(=O)C1CCC(N(C)C(=O)c2ccc(-c3ccc(C(=N)N)cc3)cc2)CC1 (centres unmarked) [6(98), 4-amidino-4'-[N-(4-methoxycarbonylcyclohexyl)-N-methylaminocarbonyl]biphenyl hydrochloride]	–	0.37
CCOC(=O)CC1CCN(C(=O)c2ccc(-c3ccc(C(=N)NC(=O)OCC)cc3)cc2)CC1 [8(7), 4-(N-ethoxycarbonylamidino)-4'-[(4-ethoxycarbonyl-methylpiperidino)carbonyl]biphenyl]	–	> 10
